Data from patent US4177350A, “Imidazole ethyl oxyalkoxy derivatives and thio analogues thereof” (Siegfried Aktiengesellschaft, priority 1977, dated 1979).
Converted amounts (≈) assume the structure as drawn.

How the values were obtained:
[1] = system: Staphylococcus aureus haemolyticus; assay: minimum inhibitory concentration, gradient plate method, Staphylococcus aureus haemolyticus; type: cell-based; parameters: key to partial resistancy, Bacteria, St: partial resistancy observed; details: for MIC: 72 h, gradient 0-100 μg/ml, 10% aqueous dimethyl formamide, evaluated three days after inoculation, read-out: Minimum Inhibitory Concentration, Bacteria, St
Source text: (§1) Test evaluation was made three days after inoculation.

[2] = system: Trichophyton mentagrophytes; assay: minimum inhibitory concentration, gradient plate method, Trichophyton mentagrophytes; type: cell-based; details: 72 h, gradient 0-100 μg/ml, 10% aqueous dimethyl formamide, evaluated three days after inoculation, read-out: Minimum Inhibitory Concentration, Fungi, Tri
Source text: as §1

Aspergillus niger = assay: minimum inhibitory concentration, gradient plate method, Aspergillus niger; type: cell-based; parameters: key to partial resistancy, Fungi, Asp: partial resistancy observed; details: for MIC: 72 h, gradient 0-100 μg/ml, 10% aqueous dimethyl formamide, evaluated three days after inoculation, read-out: Minimum Inhibitory Concentration, Fungi, Asp
Source text: as §1

in vivo = details: mouse, po
Source text: The results of these tests are summarized in the following Table I together with the oral toxicity values (LD50 per os; mice, values in mg per kg of body weight) determined in the conventional manner.

Streptococcus faecalis = assay: minimum inhibitory concentration, gradient plate method, Streptococcus faecalis; type: cell-based; details: Enterococcus faecalis, 72 h, gradient 0-100 μg/ml, 10% aqueous dimethyl formamide, evaluated three days after inoculation, read-out: Minimum Inhibitory Concentration, Bacteria, Str
Source text: as §1

| SMILES | MIC [1] | MIC [2] | MIC (Aspergillus niger) | LD50 (in vivo) | partial resistancy, Bacteria, St [1] | MIC (Streptococcus faecalis) | partial resistancy, Fungi, Asp (Aspergillus niger) |
| --- | --- | --- | --- | --- | --- | --- | --- |
| Clc1ccc(CSCOC(Cn2ccnc2)c2ccc(Cl)cc2Cl)cc1 (stereo not drawn) [Example 23, 1-β-(p-chlorobenzylthiomethoxy-2,4-dichlorophenethyl)-imidazole nitrate] | < 10 µg/mL | < 10 µg/mL | < 10 µg/mL | > 2000 mg/kg |  |  |  |
| Clc1ccc(C(Cn2ccnc2)OCCOc2ccccc2)c(Cl)c1 (stereo not drawn) [Example 27, 1-β-(phenoxyethoxy-2,4-dichlorophenethyl)-imidazole nitrate] |  | < 10 µg/mL | < 10 µg/mL | ~800 mg/kg | r | 30 µg/mL |  |
| Clc1ccc(OCCCOC(Cn2ccnc2)c2ccc(Cl)cc2Cl)cc1 (stereo not drawn) [Example 30, 1-{β-[3-(p-chlorophenoxy)-propoxy-2,4-dichlorophenethyl]}-imidazole nitrate] | < 10 µg/mL | < 10 µg/mL | < 10 µg/mL | > 4000 mg/kg |  | < 10 µg/mL |  |
| Clc1ccc(C(Cn2ccnc2)OCSc2ccc(Br)cc2)c(Cl)c1 (stereo not drawn) [Example 12, 1-β-(4-bromophenylthiomethoxy-2,4-dichlorophenethyl)-imidazole nitrate] | < 10 µg/mL | < 10 µg/mL | < 10 µg/mL | 12500 mg/kg |  | 10 µg/mL |  |
| Clc1ccc(SCOC(Cn2ccnc2)c2ccc(Cl)cc2Cl)cc1 (stereo not drawn) [Example 13, 1-β-(4-chlorophenylthiomethoxy-2,4-dichlorophenethyl)-imidazole nitrate] | 10 µg/mL | < 10 µg/mL | < 10 µg/mL | 3850 mg/kg |  | 10 µg/mL |  |
| Clc1ccc(SCOC(Cn2ccnc2)c2ccc(Cl)cc2Cl)nc1 (stereo not drawn) [Example 26, 1-β[(5'-chloropyridyl-2'-thiomethoxy)-2,4-dichlorophenethyl)]-imidazole nitrate] | 10 µg/mL | < 10 µg/mL | < 10 µg/mL | ~2700 mg/kg |  | 20 µg/mL |  |
| Clc1ccc(C(Cn2ccnc2)OCOc2ccccc2)c(Cl)c1 (stereo not drawn) [Example 2, 1-β-(phenoxymethoxy-2,4-dichlorophenethyl)-imidazole nitrate] | 10 µg/mL | < 10 µg/mL | < 10 µg/mL | > 3000 mg/kg |  | 25 µg/mL |  |
| Clc1ccc(SCCSC(Cn2ccnc2)c2ccc(Cl)cc2Cl)cc1 (stereo not drawn) [Example 21, 1-β-(4-chlorophenylthioethylthio-2,4-dichlorophenethyl)-imidazole] | < 10 µg/mL | < 10 µg/mL | < 10 µg/mL | > 3000 mg/kg |  |  |  |
| CSCOC(Cn1ccnc1)c1ccc(Cl)cc1Cl (stereo not drawn) [Example 10, 1-β-(methylthiomethoxy-2,4-dichlorophenethyl)-imidazole nitrate] | 20 µg/mL | < 10 µg/mL | < 10 µg/mL | ~950 mg/kg |  | 30 µg/mL |  |
| Clc1ccc(C(Cn2ccnc2)OCSC2CCCCC2)c(Cl)c1 (stereo not drawn) [Example 22, 1-[β-(cyclohexylthiomethoxy-2,4-dichlorophenethyl)]-imidazole nitrate] | < 10 µg/mL | < 10 µg/mL | < 10 µg/mL | > 3000 mg/kg |  | < 10 µg/mL |  |
| Clc1ccc(SCCSC(Cn2ccnc2)c2ccc(Cl)cc2Cl)nc1 (stereo not drawn) [Example 29, 1-{β-[(5'-chloropyridyl-2'-thio-2-ethylthio)-2,4-dichlorophenethyl]}-imidazole] | < 10 µg/mL | < 10 µg/mL | < 10 µg/mL | > 2000 mg/kg |  |  |  |
| Clc1ccc(C(Cn2ccnc2)OCCCOc2ccccc2)c(Cl)c1 (stereo not drawn) [Example 20, 1-β-(3-phenoxypropyloxy-2,4-dichlorophenethyl)-imidazole methane sulfonate] | < 10 µg/mL | < 10 µg/mL | < 10 µg/mL | ~2400 mg/kg |  | < 10 µg/mL |  |
| Clc1ccc(C(Cn2ccnc2)OCSc2ccccc2)c(Cl)c1 (stereo not drawn) [Example 11, 1-β-(phenylthiomethoxy-2,4-dichlorophenethyl)-imidazole nitrate] | < 10 µg/mL | < 10 µg/mL | < 10 µg/mL | > 3000 mg/kg |  | 20 µg/mL |  |
| Clc1ccc(OCOC(Cn2ccnc2)c2ccc(Cl)cc2Cl)c(Cl)c1 (stereo not drawn) [Example 5, 1-β-(2,4-dichlorophenoxymethoxy-2,4-dichlorophenethyl)-imidazole nitrate] | < 10 µg/mL | < 10 µg/mL | < 10 µg/mL | > 3000 mg/kg |  | < 10 µg/mL |  |
| Clc1ccc(OCCCSC(Cn2ccnc2)c2ccc(Cl)cc2Cl)cc1 (stereo not drawn) [Example 33, 1-{β-[3-(p-chlorophenoxy)-propylthio-2,4-dichlorophenethyl]}-imidazole] | < 10 µg/mL | < 10 µg/mL | 25 µg/mL (≈ 56.6 µM) | > 1000 mg/kg |  | 10 µg/mL (≈ 22.6 µM) |  |
| Cc1ccc(OCOC(Cn2ccnc2)c2ccc(Cl)cc2Cl)cc1 (stereo not drawn) [Example 6, 1-β-(4-methylphenoxymethoxy-2,4-dichlorophenethyl)-imidazole nitrate] | < 10 µg/mL | < 10 µg/mL | < 10 µg/mL | > 3000 mg/kg |  | 15 µg/mL |  |
| COc1ccc(OCOC(Cn2ccnc2)c2ccc(Cl)cc2Cl)cc1 (stereo not drawn) [Example 7, 1-β-(4-methoxyphenoxymethoxy-2,4-dichlorophenethyl)-imidazole nitrate] | 10 µg/mL | < 10 µg/mL | < 10 µg/mL | 2600 mg/kg |  | 30 µg/mL |  |
| Clc1ccc(OCCOC(Cn2ccnc2)c2ccc(Cl)cc2Cl)cc1 (stereo not drawn) [Example 28, 1-[β-(p-chlorophenoxyethoxy)-2,4-dichlorophenethyl)]-imidazole nitrate] | < 10 µg/mL | < 10 µg/mL | < 10 µg/mL | > 3000 mg/kg |  | 10 µg/mL |  |
| CC(C(OCSc1ccc(Cl)cc1)c1ccc(Cl)cc1Cl)n1ccnc1 (stereo not drawn) [Example 25, 1-[β-(p-chlorophenylthiomethoxy)-2,4-dichlorophenethyl-α-methyl]-imidazole nitrate] | < 10 µg/mL | < 10 µg/mL |  | > 10000 mg/kg |  | < 10 µg/mL | r |
| Clc1ccc(OCOC(Cn2ccnc2)c2ccc(Cl)cc2Cl)cc1 (stereo not drawn) [Example 4, 1-β-(4-chlorophenoxymethoxy-2,4-dichlorophenethyl)-imidazole nitrate] | < 10 µg/mL | < 10 µg/mL | < 10 µg/mL | ~2750 mg/kg |  | < 10 µg/mL |  |
| Clc1ccc(C(Cn2ccnc2)OCOc2ccc(-c3ccccc3)cc2)c(Cl)c1 (stereo not drawn) [Example 9, 1-β-(phenylphenoxymethoxy-2,4-dichlorophenethyl)-imidazole nitrate] |  |  |  | ~3500 mg/kg |  |  |  |
| COc1ccccc1OCOC(Cn1ccnc1)c1ccc(Cl)cc1Cl (stereo not drawn) [Example 24, 1-β-(2-methoxyphenoxymethyloxy-2,4-dichlorophenethyl)-imidazole nitrate] |  | < 10 µg/mL | < 10 µg/mL | ~1350 mg/kg | r |  |  |
| OCCSC(Cn1ccnc1)c1ccc(Cl)cc1Cl (stereo not drawn) [Example 18, 1-β-(2,4-dichlorophenethyl-β'-hydroxyethylthio)-imidazole nitrate] | 50 µg/mL | 30 µg/mL |  | 1300 mg/kg |  | 40 µg/mL |  |
| CSc1ccc(OCOC(Cn2ccnc2)c2ccc(Cl)cc2Cl)cc1 (stereo not drawn) [Example 8, 1-β-(4-methylthiophenoxymethoxy-2,4-dichlorophenethyl)-imidazole nitrate] | 10 µg/mL | < 10 µg/mL | < 10 µg/mL | ~2100 mg/kg |  |  |  |
| COCOC(Cn1ccnc1)c1ccc(Cl)cc1Cl (stereo not drawn) [Example 1, 1-β-(methoxy-methoxy-2,4-dichlorophenethyl)-imidazole nitrate] |  | < 10 µg/mL | < 10 µg/mL | 540 mg/kg |  |  |  |
